Assay [1] addresses Telomerase reverse transcriptase (Homo sapiens) (UniProt O14746). Put plainly: Inhibition of human TERT-regulated Wnt/beta-catenin signalling in human MGC803 cells assessed as decrease in cyclin D1 mRNA expression at 40 umol/L measured at 48 hrs by RT-PCR method. It is filed as cell-based. To be noted: MGC-803.
Assay [2] can be described thus: Inhibition of human TERT mRNA expression in human MGC803 cells at 40 umol/L measured at 48 hrs by RT-PCR method. Format: functional, cell-based. To be noted: MGC-803.
The target in assay [3] is Telomerase reverse transcriptase (Homo sapiens) (UniProt O14746). The experiment in a line: Inhibition of human TERT-regulated Wnt/beta-catenin signalling in human MGC803 cells assessed as decrease in beta-catenin mRNA expression at 40 umol/L measured at 48 hrs by RT-PCR method. Format: cell-based. To be noted: MGC-803.
The target is the same in assay [4]. Put plainly: Inhibition of human TERT-regulated Wnt/beta-catenin signalling in human MGC803 cells assessed as decrease in c-myc mRNA expression at 40 umol/L measured at 48 hrs by RT-PCR method. Format: cell-based. To be noted: MGC-803.
Assay [5] shares this target. Put plainly: Inhibition of human TERT-regulated Wnt/beta-catenin signalling in human MGC803 cells assessed as decrease in c-myc protein expression at 40 umol/L measured at 48 hrs by Western blotting method. Format: cell-based. The note with it: MGC-803. (In general: In western blotting, separated proteins are transferred to a membrane and probed.)
For assay [6] the target is unchanged. The experiment in a line: Inhibition of human TERT protein expression in human MGC803 cells at 40 umol/L measured at 48 hrs by Western blotting method. Format: cell-based. The note with it: MGC-803.
The target is the same in assay [7]. Put plainly: Inhibition of human TERT-regulated Wnt/beta-catenin signalling in human MGC803 cells assessed as decrease in beta-catenin protein expression at 40 umol/L measured at 48 hrs by Western blotting method. It is filed as cell-based. To be noted: MGC-803.
For assay [8] the target is unchanged. Put plainly: Inhibition of human TERT-regulated Wnt/beta-catenin signalling in human MGC803 cells assessed as decrease in cyclin D1 protein expression at 40 umol/L measured at 48 hrs by Western blotting method. The note with it: MGC-803. Format: cell-based.
The target is the same in assay [9]. The experiment in a line: Inhibition of human TERT-regulated Wnt/beta-catenin signalling in human MGC803 cells assessed as decrease in c-myc mRNA expression at […] after 48 hrs by RT-PCR method. It is filed as cell-based. To be noted: MGC-803.
Assay [10] shares this target. The experiment in a line: Inhibition of human TERT protein expression in human MGC803 cells at […] after 48 hrs by Western blotting method. Format: cell-based. The note with it: MGC-803.
The target is the same in assay [11]. The experiment in a line: Inhibition of human TERT-regulated Wnt/beta-catenin signalling in human MGC803 cells assessed as decrease in beta-catenin protein expression at […] after 48 hrs by Western blotting method. Format: cell-based. To be noted: MGC-803.
Assay [12] has the same target. The experiment in a line: Inhibition of human TERT-regulated Wnt/beta-catenin signalling in human MGC803 cells assessed as decrease in cyclin D1 protein expression at […] after 48 hrs by Western blotting method. Format: cell-based. To be noted: MGC-803.
For assay [13] the target is unchanged. The experiment in a line: Inhibition of human TERT-regulated Wnt/beta-catenin signalling in human MGC803 cells assessed as decrease in cyclin-D1 mRNA expression at […] after 48 hrs by RT-PCR method. Format: cell-based. The note with it: MGC-803.
The target is the same in assay [14]. The experiment in a line: Inhibition of human TERT-regulated Wnt/beta-catenin signalling in human MGC803 cells assessed as decrease in c-myc protein expression at […] after 48 hrs by Western blotting method. It is filed as cell-based. The note with it: MGC-803.
Assay [15] is described as follows: Inhibition of human TERT mRNA expression in human MGC803 cells at […] after 48 hrs by RT-PCR method. Format: functional, cell-based. To be noted: MGC-803.
In assay [16] the target is Telomerase reverse transcriptase (Homo sapiens) (UniProt O14746). The experiment in a line: Inhibition of human TERT-regulated Wnt/beta-catenin signalling in human MGC803 cells assessed as decrease in beta-catenin mRNA expression at […] after 48 hrs by RT-PCR method. To be noted: MGC-803. It is filed as cell-based.
Assay [17] in a line: Antiproliferative activity against human SGC7901 cells after 48 hrs by MTT assay. It is filed as functional, cell-based. To be noted: SGC-7901, 48 h. A general note: Tetrazolium assays rely on reduction of a dye to a coloured formazan, in cell work by metabolically active cells.
The test system of the next assay is MGC-803. The experiment in a line: Induction of cell cycle arrest in human MGC803 cells assessed as accumulation at G0/G1 phase at 1 uM after 48 hrs by propidium iodide staining-based flow cytometry (reference value: 32.7%). It is filed as functional. On the technique in general: A flow cytometer gives signals particle by particle.
The target of assay [18] is Telomerase reverse transcriptase (Homo sapiens) (UniProt O14746). The experiment in a line: Inhibition of human TERT expressed in human MGC803 cells assessed as TERT-regulated Wnt/beta-catenin signalling by measuring decrease in c-myc protein expression after 48 hrs by Western blotting method. It is filed as cell-based. The note with it: MGC-803.
For assay [19] the target is unchanged. The experiment in a line: Inhibition of human TERT-regulated Wnt/beta-catenin signalling in human MGC803 cells assessed as downregulation of c-myc protein expression after 48 hrs by Western blotting method. It is filed as cell-based. The note with it: MGC-803.
Assay [20] is described as follows: Cytotoxicity against human GES-1 cells after 48 hrs by MTT assay. It is filed as cell-based. To be noted: GES1, 48 h.
Assay [21] can be described thus: Antiproliferative activity against human MGC803 cells after 48 hrs by MTT assay. The note with it: MGC-803, 48 h. It is filed as functional, cell-based.
For assay [22], the target named is Telomerase reverse transcriptase (Homo sapiens) (UniProt O14746). The experiment in a line: Inhibition of human TERT-regulated Wnt/beta-catenin signalling in human MGC803 cells assessed as downregulation of cyclin D1 protein expression after 48 hrs by Western blotting method. Format: cell-based. The note with it: MGC-803.
The target is the same in assay [23]. The experiment in a line: Inhibition of human TERT expressed in human MGC803 cells assessed as TERT-regulated Wnt/beta-catenin signalling by measuring decrease in cyclin D1 protein expression after 48 hrs by Western blotting method. To be noted: MGC-803. Format: cell-based.
A further assay relates to Bcap37. Put plainly: Antiproliferative activity against human Bcap37 cells after 48 hrs by MTT assay. It is filed as functional, cell-based. The note with it: Bcap37, 48 h.
The nature of assay [24]: Antiproliferative activity against human PC3 cells after 48 hrs by MTT assay. It is filed as functional, cell-based. The note with it: PC-3, 48 h.
The target of assay [25] is Telomerase reverse transcriptase (Homo sapiens) (UniProt O14746). Put plainly: Inhibition of human TERT expressed in human MGC803 cells assessed as TERT-regulated Wnt/beta-catenin signalling by measuring decrease in c-myc mRNA expression after 48 hrs by RT-PCR method. It is filed as cell-based. To be noted: MGC-803.
A short description of assay [26]: Cytotoxicity against human L02 cells after 48 hrs by MTT assay. The note with it: L02, 48 h. Format: cell-based.
Assay [27] concerns the target Telomerase reverse transcriptase (Homo sapiens) (UniProt O14746). Put plainly: Inhibition of human TERT protein expression in human MGC803 cells at 1 uM after 48 hrs by Western blotting method. It is filed as cell-based. To be noted: MGC-803.
Assay [28] has the same target. Put plainly: Inhibition of human TERT expressed in human MGC803 cells assessed as TERT-regulated Wnt/beta-catenin signalling by measuring decrease in beta-catenin mRNA expression after 48 hrs by RT-PCR method. Format: cell-based. The note with it: MGC-803.
Assay [29] has the same target. Put plainly: Inhibition of human TERT expressed in human MGC803 cells assessed as TERT-regulated Wnt/beta-catenin signalling by measuring decrease in cyclin D1 mRNA expression after 48 hrs by RT-PCR method. Format: cell-based. To be noted: MGC-803.
Assay [30] shares this target. Put plainly: Inhibition of human TERT-regulated Wnt/beta-catenin signalling in human MGC803 cells assessed as downregulation of beta-catenin mRNA expression by RT-PCR method. It is filed as cell-based. To be noted: MGC-803.
The target is the same in assay [31]. Put plainly: Inhibition of human TERT-regulated Wnt/beta-catenin signalling in human MGC803 cells assessed as downregulation of beta-catenin protein expression after 48 hrs by Western blotting method. The note with it: MGC-803. It is filed as cell-based.
For assay [32] the target is unchanged. The experiment in a line: Inhibition of human TERT expressed in human MGC803 cells assessed as TERT-regulated Wnt/beta-catenin signalling by measuring decrease in beta-catenin protein expression after 48 hrs by Western blotting method. Format: cell-based. The note with it: MGC-803.
Assay [33] has the same target. The experiment in a line: Inhibition of human TERT-regulated Wnt/beta-catenin signalling in human MGC803 cells assessed as downregulation of cyclin D1 mRNA expression by RT-PCR method. Format: cell-based. To be noted: MGC-803.
Assay [34] has the same target. Put plainly: Inhibition of human TERT-regulated Wnt/beta-catenin signalling in human MGC803 cells assessed as downregulation of c-myc mRNA expression by RT-PCR method. It is filed as cell-based. To be noted: MGC-803.

Activity calls are given as the source filed them. No cut-off for these calls is given here.

Sequence of Telomerase reverse transcriptase (Homo sapiens) (O14746 whole entry): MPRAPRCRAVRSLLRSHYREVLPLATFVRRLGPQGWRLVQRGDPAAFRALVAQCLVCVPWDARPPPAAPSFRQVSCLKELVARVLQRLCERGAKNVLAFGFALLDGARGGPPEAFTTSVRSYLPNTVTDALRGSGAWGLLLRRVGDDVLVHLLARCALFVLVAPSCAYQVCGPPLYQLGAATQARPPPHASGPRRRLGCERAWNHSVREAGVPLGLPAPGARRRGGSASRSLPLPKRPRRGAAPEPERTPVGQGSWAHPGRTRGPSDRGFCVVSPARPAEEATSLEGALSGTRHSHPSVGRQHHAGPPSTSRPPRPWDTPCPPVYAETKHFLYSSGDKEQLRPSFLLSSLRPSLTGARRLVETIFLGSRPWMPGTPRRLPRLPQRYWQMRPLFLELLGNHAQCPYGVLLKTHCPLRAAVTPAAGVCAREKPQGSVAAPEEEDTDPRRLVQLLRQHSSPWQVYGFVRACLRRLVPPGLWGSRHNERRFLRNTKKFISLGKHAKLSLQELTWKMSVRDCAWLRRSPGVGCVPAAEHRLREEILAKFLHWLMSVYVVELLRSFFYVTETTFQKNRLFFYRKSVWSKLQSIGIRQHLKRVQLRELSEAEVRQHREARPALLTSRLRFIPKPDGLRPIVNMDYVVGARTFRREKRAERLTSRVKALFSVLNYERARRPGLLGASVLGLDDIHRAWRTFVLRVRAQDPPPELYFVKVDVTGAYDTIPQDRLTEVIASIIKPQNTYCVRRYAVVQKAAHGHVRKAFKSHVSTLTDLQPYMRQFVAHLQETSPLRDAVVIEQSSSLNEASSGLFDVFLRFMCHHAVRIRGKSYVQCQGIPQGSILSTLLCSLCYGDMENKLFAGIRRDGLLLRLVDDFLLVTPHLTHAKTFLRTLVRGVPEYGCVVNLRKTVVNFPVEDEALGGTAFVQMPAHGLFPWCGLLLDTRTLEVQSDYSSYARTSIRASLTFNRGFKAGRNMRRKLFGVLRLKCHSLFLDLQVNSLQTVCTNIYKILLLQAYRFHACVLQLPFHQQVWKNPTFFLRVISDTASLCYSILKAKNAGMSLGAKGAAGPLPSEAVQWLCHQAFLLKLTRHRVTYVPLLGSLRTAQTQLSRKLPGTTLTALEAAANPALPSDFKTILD

With `CCc1ccc(-c2nc(CSCC(=O)NCCc3ccccc3)c(C)o2)cc1`, the inhibition result in [1], in assay [2], in assay [3], in assay [4], in assay [5] and in assay [6] was “Active” each time. Besides, the inhibition entry in assay [7] and in assay [8] was “Active” each time.
For `Cc1cn([C@H]2C[C@H](N=[N+]=[N-])[C@@H](CO)O2)c(=O)[nH]c1=O`, the inhibition entry in assay [9], in [10], in assay [11], in assay [12], in assay [13] and in assay [14] was “Active” each time. For the same compound, the inhibition entry in [15] and in [16] was “Active” each time.
For `O=C(CN1CCCCC1)N1N=C(c2ccccc2)CC1c1cc2ccccc2oc1=O` (stereo not given), the IC50 in assay [17] was determined as 0.46 µM; in assay [20], 2300 µM; in [21], 1.41 µM; in the assay with Bcap37, 5.3 µM; in [24], 4.12 µM; in assay [26], 2500 µM. Also, in the assay on MGC-803, the Activity turned out to be 50.6%. Moreover, the inhibition entry in assay [18], in assay [19], in [22], in assay [23], in [25] and in [27] was “Active” throughout. The inhibition entry in assay [28], in assay [29], in [30], in [31], in [32] and in assay [33] was “Active” in each case. In [34], the inhibition result was “Active”.
In the case of `COc1cccc2c1C(=O)c1c(O)c3c(c(O)c1C2=O)C[C@@](O)(C(=O)CO)C[C@@H]3O[C@H]1C[C@H](N)[C@H](O)[C@H](C)O1` [DOXORUBICIN], the IC50 turned out to be 0.8 µM in assay [17], 1.01 µM in [21], 1.19 µM in the assay with Bcap37 and 1.49 µM in [24].

Usually IC50 stands for the concentration needed to halve the response being measured.

Values taken from ChEMBL document CHEMBL3784982, “Novel dihydropyrazole-chromen: Design and modulates hTERT inhibition proliferation of MGC-803” (Eur J Med Chem, 2016).
